Measured values reported in patent US20090298820A1, “3-SUBSTITUTED-1H-PYRROLO[2,3-B]PYRIDINE AND 3-SUBSTITUTED-1H-PYRROLO[3,2-B]PYRIDINE COMPOUNDS, THEIR USE AS MTOR KINASE AND PI3 KINASE INHIBITORS, AND THEIR SYNTHESES” (Wyeth, priority 2008, published 2009).

How the values were obtained:
Assay type in all cases: biochemical
PI3Kα = PI3Kα (Homo sapiens, UniProt P42336); test: PI3K-alpha fluorescence polarization assay; conditions: read-out: PI3Kα Median IC50
PI3Kγ = PI3Kγ (Homo sapiens, UniProt P48736); test: PI3K-gamma fluorescence polarization assay; conditions: read-out: PI3Kγ Median IC50
mTOR = mTOR (Homo sapiens, UniProt P42345); test: mTOR enzyme assay (DELFIA format, His6-S6K substrate); conditions: read-out: mTOR Kinase Median IC50

Sequence of PI3Kα (P42336 whole entry, species assumed): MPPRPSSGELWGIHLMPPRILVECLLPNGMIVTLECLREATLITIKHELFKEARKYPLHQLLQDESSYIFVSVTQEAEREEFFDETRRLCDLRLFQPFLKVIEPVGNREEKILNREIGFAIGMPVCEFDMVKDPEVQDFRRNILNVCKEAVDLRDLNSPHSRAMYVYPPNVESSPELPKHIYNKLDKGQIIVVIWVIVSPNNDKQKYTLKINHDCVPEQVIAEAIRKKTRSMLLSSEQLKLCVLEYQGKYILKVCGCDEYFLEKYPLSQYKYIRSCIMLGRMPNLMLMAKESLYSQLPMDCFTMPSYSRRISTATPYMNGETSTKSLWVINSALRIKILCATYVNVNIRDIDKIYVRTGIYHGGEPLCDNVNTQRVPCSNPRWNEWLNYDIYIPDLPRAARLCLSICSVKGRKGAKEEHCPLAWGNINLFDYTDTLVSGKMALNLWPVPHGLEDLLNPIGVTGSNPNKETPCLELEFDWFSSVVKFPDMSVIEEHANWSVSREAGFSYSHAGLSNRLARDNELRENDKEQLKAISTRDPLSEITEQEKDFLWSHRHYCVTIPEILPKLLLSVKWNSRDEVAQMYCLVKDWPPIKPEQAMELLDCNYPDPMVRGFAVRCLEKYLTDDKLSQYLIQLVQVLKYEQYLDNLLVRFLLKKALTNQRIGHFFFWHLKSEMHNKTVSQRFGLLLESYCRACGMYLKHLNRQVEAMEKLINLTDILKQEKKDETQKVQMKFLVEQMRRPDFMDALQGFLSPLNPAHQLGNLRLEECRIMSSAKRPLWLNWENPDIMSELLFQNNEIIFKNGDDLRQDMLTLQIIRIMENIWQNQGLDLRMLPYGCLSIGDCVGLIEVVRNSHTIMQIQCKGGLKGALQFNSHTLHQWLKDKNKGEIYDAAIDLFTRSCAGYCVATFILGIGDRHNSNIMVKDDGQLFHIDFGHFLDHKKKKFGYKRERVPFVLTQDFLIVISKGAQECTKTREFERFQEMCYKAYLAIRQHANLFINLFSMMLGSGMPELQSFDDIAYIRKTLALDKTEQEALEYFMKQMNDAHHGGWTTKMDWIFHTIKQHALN
Sequence of PI3Kα (P27986 whole entry partner, species assumed): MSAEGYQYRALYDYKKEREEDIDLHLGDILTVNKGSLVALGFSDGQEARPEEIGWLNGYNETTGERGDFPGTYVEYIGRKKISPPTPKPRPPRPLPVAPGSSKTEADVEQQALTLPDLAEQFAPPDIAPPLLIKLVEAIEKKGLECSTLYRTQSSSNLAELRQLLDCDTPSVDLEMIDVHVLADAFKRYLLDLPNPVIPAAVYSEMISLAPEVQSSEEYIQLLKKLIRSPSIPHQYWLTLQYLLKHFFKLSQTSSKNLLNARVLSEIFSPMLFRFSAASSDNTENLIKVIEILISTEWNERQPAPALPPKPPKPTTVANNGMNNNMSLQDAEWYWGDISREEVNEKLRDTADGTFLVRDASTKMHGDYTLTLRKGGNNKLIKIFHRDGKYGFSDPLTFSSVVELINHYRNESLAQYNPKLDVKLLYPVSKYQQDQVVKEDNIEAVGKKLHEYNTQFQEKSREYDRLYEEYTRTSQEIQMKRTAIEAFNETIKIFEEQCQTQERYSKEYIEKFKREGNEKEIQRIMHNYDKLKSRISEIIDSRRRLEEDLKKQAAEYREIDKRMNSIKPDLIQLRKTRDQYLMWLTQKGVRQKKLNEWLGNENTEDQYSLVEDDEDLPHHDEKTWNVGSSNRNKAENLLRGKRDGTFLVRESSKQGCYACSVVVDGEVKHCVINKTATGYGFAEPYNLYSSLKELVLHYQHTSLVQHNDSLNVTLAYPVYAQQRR
Sequence of PI3Kγ (P48736 whole entry, species assumed): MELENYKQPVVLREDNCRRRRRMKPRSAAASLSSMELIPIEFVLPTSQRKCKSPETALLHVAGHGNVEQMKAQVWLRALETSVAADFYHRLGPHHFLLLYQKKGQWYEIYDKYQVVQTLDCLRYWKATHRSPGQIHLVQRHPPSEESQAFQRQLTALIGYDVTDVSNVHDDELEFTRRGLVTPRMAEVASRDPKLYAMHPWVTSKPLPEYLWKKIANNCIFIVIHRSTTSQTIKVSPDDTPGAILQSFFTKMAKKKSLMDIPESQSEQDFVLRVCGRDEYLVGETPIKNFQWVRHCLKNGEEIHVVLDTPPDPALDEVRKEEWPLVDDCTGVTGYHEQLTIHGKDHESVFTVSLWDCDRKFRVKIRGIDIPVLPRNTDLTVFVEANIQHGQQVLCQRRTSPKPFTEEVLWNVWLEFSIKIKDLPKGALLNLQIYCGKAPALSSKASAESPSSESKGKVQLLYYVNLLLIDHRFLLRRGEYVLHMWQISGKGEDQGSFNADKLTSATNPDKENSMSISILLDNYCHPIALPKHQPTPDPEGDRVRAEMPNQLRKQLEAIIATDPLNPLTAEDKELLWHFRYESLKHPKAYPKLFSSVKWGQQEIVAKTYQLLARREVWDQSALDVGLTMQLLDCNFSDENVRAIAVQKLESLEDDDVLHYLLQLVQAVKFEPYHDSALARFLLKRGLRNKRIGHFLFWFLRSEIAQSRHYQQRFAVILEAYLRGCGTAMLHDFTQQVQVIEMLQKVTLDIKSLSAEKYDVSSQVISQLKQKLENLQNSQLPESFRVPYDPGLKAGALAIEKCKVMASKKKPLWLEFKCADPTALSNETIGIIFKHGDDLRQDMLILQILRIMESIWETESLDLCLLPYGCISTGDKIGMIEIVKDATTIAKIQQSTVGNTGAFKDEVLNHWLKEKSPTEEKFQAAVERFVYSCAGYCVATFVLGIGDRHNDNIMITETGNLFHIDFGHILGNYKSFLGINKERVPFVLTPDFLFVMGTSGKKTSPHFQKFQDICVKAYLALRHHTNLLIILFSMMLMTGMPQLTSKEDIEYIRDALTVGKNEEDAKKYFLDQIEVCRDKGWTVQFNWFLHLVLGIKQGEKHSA

## CN1CCN(c2ccc(NC(=O)Nc3ccc4c(c3)C(=O)/C(=C/c3cn(C)c5nccc(N6CC7CCC(C6)O7)c35)O4)cn2)CC1 [Compound 231, 1-[(2Z)-2-{[1-methyl-4-(8-oxa-3-azabicyclo[3.2.1]oct-3-yl)-1H-pyrrolo[2,3-b]pyridin-3-yl]methylidene}-3-oxo-2,3-dihydro-1-benzofuran-5-yl]-3-[6-(4-methylpiperazin-1-yl)pyridin-3-yl]urea]
PI3Kα
  IC50: 0.703 µM
PI3Kγ
  IC50: > 10 µM
mTOR
  IC50: 0.0315 µM

## Cn1cncc1CNC(=O)Nc1ccc2c(c1)C(=O)/C(=C/c1cn(C)c3nccc(N4CC5CCC(C4)O5)c13)O2 [Compound 232, 1-[(1-methyl-1H-imidazol-5-yl)methyl]-3-[(2Z)-2-{[1-methyl-4-(8-oxa-3-azabicyclo[3.2.1]oct-3-yl)-1H-pyrrolo[2,3-b]pyridin-3-yl]methylidene}-3-oxo-2,3-dihydro-1-benzofuran-5-yl]urea]
PI3Kα
  IC50: 1.14 µM
PI3Kγ
  IC50: > 10 µM
mTOR
  IC50: 0.16 µM

## Cn1cc(/C=C2\Oc3ccc(NC(=O)Nc4cccnc4)cc3C2=O)c2c(N3CCC(C(=O)N4CC5CCC4CO5)CC3)ccnc21 (stereo not drawn) [Compound 233, 1-[(2Z)-2-({1-methyl-4-[4-(2-oxa-5-azabicyclo[2.2.2]oct-5-ylcarbonyl)piperidin-1-yl]-1H-pyrrolo[2,3-b]pyridin-3-yl}methylidene)-3-oxo-2,3-dihydro-1-benzofuran-5-yl]-3-pyridin-3-ylurea]
PI3Kα
  IC50: 0.196 µM
PI3Kγ
  IC50: 1.73 µM
mTOR
  IC50: 0.038 µM

## Cn1cc(/C=C2\Oc3ccc(NC(=O)Nc4cccnc4)cc3C2=O)c2c(C(=O)N3CCCCC3)ccnc21 [Compound 234, 1-[(2Z)-2-{[1-methyl-4-(piperidin-1-ylcarbonyl)-1H-pyrrolo[2,3-b]pyridin-3-yl]methylidene}-3-oxo-2,3-dihydro-1-benzofuran-5-yl]-3-pyridin-3-ylurea]
PI3Kα
  IC50: 0.253 µM
PI3Kγ
  IC50: 2.5 µM
mTOR
  IC50: > 4 µM

## CC(C)NC(=O)Nc1ccc2c(c1)C(=O)/C(=C/c1cn(C)c3nccc(N4CC5CCC(C4)O5)c13)O2 [Compound 235, 1-(1-methylethyl)-3-[(2Z)-2-{[1-methyl-4-(8-oxa-3-azabicyclo[3.2.1]oct-3-yl)-1H-pyrrolo[2,3-b]pyridin-3-yl]methylidene}-3-oxo-2,3-dihydro-1-benzofuran-5-yl]urea]
PI3Kα
  IC50: 0.845 µM
PI3Kγ
  IC50: 2.56 µM
mTOR
  IC50: 0.072 µM

## C[C@H]1COCCN1c1ccnc2c1c(/C=C1\Oc3ccc(NC(=O)Nc4cccnc4)cc3C1=O)cn2C [Compound 238, 1-[(2Z)-2-({1-methyl-4-[(3S)-3-methylmorpholin-4-yl]-1H-pyrrolo[2,3-b]pyridin-3-yl}methylidene)-3-oxo-2,3-dihydro-1-benzofuran-5-yl]-3-pyridin-3-ylurea]
PI3Kα
  IC50: 0.649 µM
PI3Kγ
  IC50: 3.64 µM
mTOR
  IC50: 0.13 µM

## C[C@@H]1CN(C2CCN(c3ccnc4c3c(/C=C3\Oc5ccc(NC(=O)Nc6cccnc6)cc5C3=O)cn4C)CC2)C[C@H](C)O1 [Compound 239, 1-{(2Z)-2-[(4-{4-[(2R,6S)-2,6-dimethylmorpholin-4-yl]piperidin-1-yl}-1-methyl-1H-pyrrolo[2,3-b]pyridin-3-yl)methylidene]-3-oxo-2,3-dihydro-1-benzofuran-5-yl}-3-pyridin-3-ylurea]
PI3Kα
  IC50: 0.326 µM
PI3Kγ
  IC50: 0.748 µM
mTOR
  IC50: 0.064 µM

## CCN(CCO)C(=O)c1ccc(-c2ccnc3c2c(/C=C2\Oc4cccc(O)c4C2=O)cn3C)cc1 [Compound 243, N-ethyl-N-(2-hydroxyethyl)-4-{3-[(Z)-(4-hydroxy-3-oxo-1-benzofuran-2(3H)-ylidene)methyl]-1-methyl-1H-pyrrolo[2,3-b]pyridin-4-yl}benzamide]
PI3Kα
  IC50: 0.167 µM
PI3Kγ
  IC50: 0.219 µM
mTOR
  IC50: 0.0905 µM

## CCN(CC)C(=O)C1CCN(c2ccnc3c2c(/C=C2\Oc4ccc(NC(=O)Nc5cccnc5)cc4C2=O)cn3C)CC1 [Compound 244, N,N-diethyl-1-{1-methyl-3-[(Z)-{3-oxo-5-[(pyridin-3-ylcarbamoyl)amino]-1-benzofuran-2(3H)-ylidene}methyl]-1H-pyrrolo[2,3-b]pyridin-4-yl}piperidine-4-carboxamide]
PI3Kα
  IC50: 0.308 µM
PI3Kγ
  IC50: 3.38 µM
mTOR
  IC50: 0.115 µM

## Cn1cc(/C=C2\Oc3cccc(O)c3C2=O)c2c(-c3ccc(C(=O)N4CCC(O)C4)cc3)ccnc21 (stereo not drawn) [Compound 245, (2Z)-4-hydroxy-2-[(4-{4-[(3-hydroxypyrrolidin-1-yl)carbonyl]phenyl}-1-methyl-1H-pyrrolo[2,3-b]pyridin-3-yl)methylene]-1-benzofuran-3(2H)-one]
PI3Kα
  IC50: 0.029 µM
PI3Kγ
  IC50: 0.054 µM
mTOR
  IC50: 0.0014 µM

## COCCN(C)C(=O)c1ccc(-c2ccnc3c2c(/C=C2\Oc4ccc(NC(=O)Nc5cccnc5)cc4C2=O)cn3C)cc1 [Compound 247, N-(2-methoxyethyl)-N-methyl-4-{1-methyl-3-[(Z)-{3-oxo-5-[(pyridin-3-ylcarbamoyl)amino]-1-benzofuran-2(3H)-ylidene}methyl]-1H-pyrrolo[2,3-b]pyridin-4-yl}benzamide]
PI3Kα
  IC50: 3.3 µM
PI3Kγ
  IC50: 0.484 µM
mTOR
  IC50: 0.03 µM

## CONC(=O)c1ccc(-c2ccnc3c2c(/C=C2\Oc4ccc(NC(=O)Nc5cccnc5)cc4C2=O)cn3C)cc1 [Compound 248, N-methoxy-4-{1-methyl-3-[(Z)-{3-oxo-5-[(pyridin-3-ylcarbamoyl)amino]-1-benzofuran-2(3H)-ylidene}methyl]-1H-pyrrolo[2,3-b]pyridin-4-yl}benzamide]
PI3Kα
  IC50: 0.976 µM
PI3Kγ
  IC50: 0.479 µM
mTOR
  IC50: 1.65 µM

## COC1CCN(C(=O)c2ccc(-c3ccnc4c3c(/C=C3\Oc5cccc(O)c5C3=O)cn4C)cc2)C1 (stereo not drawn) [Compound 249, (2Z)-4-hydroxy-2-[(4-{4-[(3-methoxypyrrolidin-1-yl)carbonyl]phenyl}-1-methyl-1H-pyrrolo[2,3-b]pyridin-3-yl)methylene]-1-benzofuran-3(2H)-one]
PI3Kα
  IC50: 0.02 µM
PI3Kγ
  IC50: 0.026 µM
mTOR
  IC50: 0.0006 µM

## CN1CCN(C(=O)C2CCN(c3ccnc4c3c(/C=C3\Oc5ccc(NC(=O)Nc6cccnc6)cc5C3=O)cn4C)CC2)CC1 [Compound 252, 1-{(2Z)-2-[(1-methyl-4-{4-[(4-methylpiperazin-1-yl)carbonyl]piperidin-1-yl}-1H-pyrrolo[2,3-b]pyridin-3-yl)methylidene]-3-oxo-2,3-dihydro-1-benzofuran-5-yl}-3-pyridin-3-ylurea]
PI3Kα
  IC50: 4.6 µM
PI3Kγ
  IC50: 1.25 µM
mTOR
  IC50: 0.007 µM

## Cn1cc(/C=C2\Oc3ccc(NC(=O)Nc4cccnc4)cc3C2=O)c2c(N3CCC(C(=O)N4CCCC4)CC3)ccnc21 [Compound 253, 1-[(2Z)-2-({1-methyl-4-[4-(pyrrolidin-1-ylcarbonyl)piperidin-1-yl]-1H-pyrrolo[2,3-b]pyridin-3-yl}methylene)-3-oxo-2,3-dihydro-1-benzofuran-5-yl]-3-pyridin-3-ylurea]
PI3Kα
  IC50: 0.909 µM
PI3Kγ
  IC50: 0.661 µM
mTOR
  IC50: 0.0082 µM

## Cn1cc(/C=C2\Oc3ccc(NC(=O)Nc4cccnc4)cc3C2=O)c2c(N3CCC(C(=O)NCCO)CC3)ccnc21 [Compound 254, N-(2-hydroxyethyl)-1-{1-methyl-3-[(Z)-{3-oxo-5-[(pyridin-3-ylcarbamoyl)amino]-1-benzofuran-2(3H)-ylidene}methyl]-1H-pyrrolo[2,3-b]pyridin-4-yl}piperidine-4-carboxamide]
PI3Kα
  IC50: 3.33 µM
PI3Kγ
  IC50: 1.14 µM
mTOR
  IC50: 0.0042 µM

## Cn1cc(/C=C2\Oc3ccc(NC(=O)Nc4cccnc4)cc3C2=O)c2c(N3CCC(C(=O)N4CCCCC4)CC3)ccnc21 [Compound 258, 1-[(2Z)-2-({1-methyl-4-[4-(piperidin-1-ylcarbonyl)piperidin-1-yl]-1H-pyrrolo[2,3-b]pyridin-3-yl}methylene)-3-oxo-2,3-dihydro-1-benzofuran-5-yl]-3-pyridin-3-ylurea]
PI3Kα
  IC50: 0.604 µM
PI3Kγ
  IC50: 0.206 µM
mTOR
  IC50: 0.0475 µM

## COC1CCN(C(=O)c2ccc(-c3ccnc4c3c(/C=C3\Oc5ccc(NC(=O)Nc6cccnc6)cc5C3=O)cn4C)cc2)C1 (stereo not drawn) [Compound 259, 1-{(2Z)-2-[(4-{4-[(3-methoxypyrrolidin-1-yl)carbonyl]phenyl}-1-methyl-1H-pyrrolo[2,3-b]pyridin-3-yl)methylene]-3-oxo-2,3-dihydro-1-benzofuran-5-yl}-3-pyridin-3-ylurea]
PI3Kα
  IC50: 2.06 µM
PI3Kγ
  IC50: 0.529 µM
mTOR
  IC50: 0.0175 µM

## COCCNC(=O)C1CCN(c2ccnc3c2c(/C=C2\Oc4ccc(NC(=O)Nc5cccnc5)cc4C2=O)cn3C)CC1 [Compound 260, N-(2-methoxyethyl)-1-{1-methyl-3-[(Z)-{3-oxo-5-[(pyridin-3-ylcarbamoyl)amino]-1-benzofuran-2(3H)-ylidene}methyl]-1H-pyrrolo[2,3-b]pyridin-4-yl}piperidine-4-carboxamide]
PI3Kα
  IC50: 0.744 µM
PI3Kγ
  IC50: 1.92 µM
mTOR
  IC50: 0.0084 µM

## CN(C)CCNC(=O)C1CCN(c2ccnc3c2c(/C=C2\Oc4ccc(NC(=O)Nc5cccnc5)cc4C2=O)cn3C)CC1 [Compound 261, N-[2-(dimethylamino)ethyl]-1-{1-methyl-3-[(Z)-{3-oxo-5-[(pyridin-3-ylcarbamoyl)amino]-1-benzofuran-2(3H)-ylidene}methyl]-1H-pyrrolo[2,3-b]pyridin-4-yl}piperidine-4-carboxamide]
PI3Kα
  IC50: > 10 µM
PI3Kγ
  IC50: 0.886 µM
mTOR
  IC50: 0.0225 µM

## CC1CN(C(=O)C2CCN(c3ccnc4c3c(/C=C3\Oc5ccc(NC(=O)Nc6cccnc6)cc5C3=O)cn4C)CC2)CC(C)O1 (stereo not drawn) [Compound 265, 1-{(2Z)-2-[(4-{4-[(2,6-dimethylmorpholin-4-yl)carbonyl]piperidin-1-yl}-1-methyl-1H-pyrrolo[2,3-b]pyridin-3-yl)methylene]-3-oxo-2,3-dihydro-1-benzofuran-5-yl}-3-pyridin-3-ylurea]
PI3Kα
  IC50: 3.75 µM
PI3Kγ
  IC50: 1.19 µM
mTOR
  IC50: 0.0405 µM

## CN(C)CCN(C)C(=O)C1CCN(c2ccnc3c2c(/C=C2\Oc4ccc(NC(=O)Nc5cccnc5)cc4C2=O)cn3C)CC1 [Compound 266, N-[2-(dimethylamino)ethyl]-N-methyl-1-{1-methyl-3-[(Z)-{3-oxo-5-[(pyridin-3-ylcarbamoyl)amino]-1-benzofuran-2(3H)-ylidene}methyl]-1H-pyrrolo[2,3-b]pyridin-4-yl}piperidine-4-carboxamide]
PI3Kα
  IC50: > 10 µM
PI3Kγ
  IC50: 1.2 µM
mTOR
  IC50: 0.0425 µM
